# Data as given in ChEMBL document CHEMBL1201862, “PubChem BioAssay data set” (2004).
# Activity calls are given as the source filed them.
# Assays:
# [1] = biological target: Adenosylmethionine-8-amino-7-oxononanoate aminotransferase (Mycobacterium tuberculosis, UniProt P9WQ81); experiment: Mycobacterium tuberculosis BioA enzyme inhibitor Measured in Biochemical System Using Plate Reader - 2163-02_Inhibitor_Dose_CherryPick_Activity.; type: functional, Mycobacterium tuberculosis UT205
# [2] = biological target: Peroxisome proliferator-activated receptor gamma/Nuclear receptor coactivator 3 (Homo sapiens, UniProt P37231); type: functional;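 further: agonist potency for raising coactivator recruitment to the receptor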
# HEK293 [3] = experiment: HEK cell cytotoxicity by LDH release, dose response, cytotoxicity control for IDE activator project, fluorescence, HEK cells (AID 588440); type: functional, cell-based; conditions: Homo sapiens;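 further: cytotoxicity by LDH release measuring loss of membrane integrity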
# Insulin-degrading enzyme [4] = biological target: T1, Insulin-degrading enzyme (Homo sapiens, UniProt P14735); experiment: activators of recombinant IDE enzyme, dose response, counter-screen for IDE activator project, biochemical, fluorescence polarization (AID 588681)
# T1 sequence (P14735 whole entry): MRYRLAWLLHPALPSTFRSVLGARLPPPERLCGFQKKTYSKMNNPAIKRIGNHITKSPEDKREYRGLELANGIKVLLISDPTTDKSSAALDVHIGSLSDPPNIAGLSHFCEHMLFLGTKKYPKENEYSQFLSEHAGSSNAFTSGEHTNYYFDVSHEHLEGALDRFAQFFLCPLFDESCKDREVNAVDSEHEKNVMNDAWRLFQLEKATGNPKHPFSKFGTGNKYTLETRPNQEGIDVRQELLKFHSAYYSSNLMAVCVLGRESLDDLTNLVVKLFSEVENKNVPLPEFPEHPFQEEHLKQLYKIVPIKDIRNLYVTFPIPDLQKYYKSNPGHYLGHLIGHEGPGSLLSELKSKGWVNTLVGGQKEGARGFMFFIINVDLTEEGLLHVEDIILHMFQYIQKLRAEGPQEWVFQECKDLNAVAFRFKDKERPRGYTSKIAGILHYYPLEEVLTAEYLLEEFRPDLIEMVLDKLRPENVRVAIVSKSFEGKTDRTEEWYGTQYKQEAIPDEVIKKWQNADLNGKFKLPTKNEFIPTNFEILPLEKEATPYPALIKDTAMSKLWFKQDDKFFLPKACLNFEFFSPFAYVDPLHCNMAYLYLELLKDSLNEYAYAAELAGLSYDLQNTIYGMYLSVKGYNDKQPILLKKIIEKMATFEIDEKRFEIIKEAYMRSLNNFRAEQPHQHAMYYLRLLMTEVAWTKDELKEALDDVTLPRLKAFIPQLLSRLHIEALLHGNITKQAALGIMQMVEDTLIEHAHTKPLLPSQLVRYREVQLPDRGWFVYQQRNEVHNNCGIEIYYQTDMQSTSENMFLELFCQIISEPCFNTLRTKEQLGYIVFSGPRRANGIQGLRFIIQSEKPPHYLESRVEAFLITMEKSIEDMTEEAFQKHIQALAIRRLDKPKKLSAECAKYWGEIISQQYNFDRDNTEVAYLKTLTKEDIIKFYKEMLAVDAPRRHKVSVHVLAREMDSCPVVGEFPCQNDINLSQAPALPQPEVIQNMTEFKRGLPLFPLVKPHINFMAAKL
# Insulin-degrading enzyme [5] = biological target: T1, Insulin-degrading enzyme; experiment: activators of endogenous IDE in HEK cells, dose response, cell-based, fluorescence polarization (AID 588439); type: functional
# [6] = biological target: Peroxisome proliferator-activated receptor gamma/Nuclear receptor coactivator 2 (Homo sapiens, UniProt P37231); type: functional;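 further: agonist potency for raising coactivator recruitment to the receptor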
# [7] = biological target: Peroxisome proliferator-activated receptor gamma/Nuclear receptor coactivator 1 (Homo sapiens, UniProt P37231); type: functional;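 further: agonist potency as compounds enhance coactivator SRC-1 recruitment to PPARgamma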
# HEK293 [8] = experiment: optical interference in Abeta FP readout, dose response, artefact control for IDE activator project, biochemical, fluorescence polarization (AID 588442); type: functional, cell-based; conditions: Homo sapiens
# ORF 73 = biological target: T2, ORF 73 (Human herpesvirus 8, UniProt O40947); experiment: inhibitors of C-LANA binding to LBS DNA, dose response, biochemical, fluorescence polarization, cherry-picked samples (AID 504725); parameters: species or system Human gammaherpesvirus 8;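 further: fluorescence polarization of a labeled DNA duplex reporting LANA DNA binding; potency is for inhibitors that block LANA binding to the DNA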
# T2 sequence (O40947 whole entry): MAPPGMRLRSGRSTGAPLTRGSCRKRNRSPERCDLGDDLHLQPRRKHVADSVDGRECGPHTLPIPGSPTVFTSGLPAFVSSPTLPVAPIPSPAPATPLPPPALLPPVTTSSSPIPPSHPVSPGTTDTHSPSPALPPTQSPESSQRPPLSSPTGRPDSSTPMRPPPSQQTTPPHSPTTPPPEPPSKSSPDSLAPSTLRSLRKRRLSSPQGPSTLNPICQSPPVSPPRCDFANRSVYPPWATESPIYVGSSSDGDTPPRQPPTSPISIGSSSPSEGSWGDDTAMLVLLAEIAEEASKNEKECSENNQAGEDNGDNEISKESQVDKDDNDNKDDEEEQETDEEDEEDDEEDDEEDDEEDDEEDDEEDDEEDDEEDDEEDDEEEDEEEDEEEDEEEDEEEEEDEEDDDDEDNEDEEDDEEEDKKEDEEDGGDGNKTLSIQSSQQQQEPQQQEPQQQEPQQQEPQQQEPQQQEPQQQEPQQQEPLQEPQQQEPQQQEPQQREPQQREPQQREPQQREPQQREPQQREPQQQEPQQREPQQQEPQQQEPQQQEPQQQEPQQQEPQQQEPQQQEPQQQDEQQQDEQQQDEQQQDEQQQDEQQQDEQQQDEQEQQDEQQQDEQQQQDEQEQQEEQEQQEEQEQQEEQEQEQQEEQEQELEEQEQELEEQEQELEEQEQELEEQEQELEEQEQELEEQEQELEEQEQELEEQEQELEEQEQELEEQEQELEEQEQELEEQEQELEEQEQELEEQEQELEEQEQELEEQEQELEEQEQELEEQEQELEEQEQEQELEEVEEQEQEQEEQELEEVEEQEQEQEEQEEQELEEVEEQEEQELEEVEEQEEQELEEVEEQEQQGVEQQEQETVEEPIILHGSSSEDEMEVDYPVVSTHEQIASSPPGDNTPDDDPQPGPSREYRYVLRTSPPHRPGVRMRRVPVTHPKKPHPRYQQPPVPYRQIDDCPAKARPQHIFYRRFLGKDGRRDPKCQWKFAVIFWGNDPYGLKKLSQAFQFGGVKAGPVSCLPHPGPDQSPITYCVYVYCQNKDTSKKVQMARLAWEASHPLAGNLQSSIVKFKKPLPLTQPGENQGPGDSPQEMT
# [9] = biological target: T3, Mitochondrial peptide methionine sulfoxide reductase (Bos taurus, UniProt P54149); experiment: Absorbance-based biochemical high throughput dose response assay for activators of Methionine sulfoxide reductase A (MsrA).; type: functional
# T3 sequence (P54149 whole entry): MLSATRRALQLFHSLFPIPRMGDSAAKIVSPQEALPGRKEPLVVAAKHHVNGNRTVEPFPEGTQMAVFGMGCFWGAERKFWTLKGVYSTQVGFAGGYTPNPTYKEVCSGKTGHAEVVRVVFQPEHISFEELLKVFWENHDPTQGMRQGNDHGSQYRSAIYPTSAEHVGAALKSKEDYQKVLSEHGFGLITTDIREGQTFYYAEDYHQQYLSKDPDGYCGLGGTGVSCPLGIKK
# [10] = biological target: T3, Mitochondrial peptide methionine sulfoxide reductase; type: functional
# BJ [11] = experiment: cytotoxicity toward BJ-TERT-LT-ST fibroblasts, dose response, cell-based, RAS-independent, luminescence (AID 1935); type: functional; conditions: Homo sapiens;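 further: BJ fibroblasts immortalized with TERT plus LT and ST oncogenes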
# BJ [12] = experiment: cytotoxicity toward Ras-transformed BJeLR fibroblasts, dose response, cell-based, alamar blue fluorescence, cherrypicked samples (AID 2631); type: functional; conditions: Homo sapiens;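 further: confirmatory dose-response assay in RAS-dependent BJ fibroblasts engineered with TERT, LT and ST, with cytotoxicity read by fluorescence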
# BJ [13] = experiment: cells; type: functional, cell-based; conditions: Homo sapiens
# BJ [14] = experiment: cytotoxicity toward BJ-TERT fibroblasts, dose response, cell-based, RAS-independent, luminescence (AID 1933); type: functional; conditions: Homo sapiens
# [15] = cytotoxicity toward DRD oncogenic fibroblasts, dose response, cell-based, non-viral oncogenic, luminescence (AID 1934); type: functional; conditions: Homo sapiens
# [16] = MC4R antagonists, dose response, counter-screen for LGR2 antagonist project, cell-based, plate reader, cherry pick (AID 743444); type: functional;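 further: transfected HEK 293 cells stimulated with alpha-MSH peptide; potency of inhibitors of the alpha-MSH evoked signal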
# [17] = LGR2 antagonists, dose response, cell-based, HEK293, CRE-luciferase reporter, cherry pick, set 2 (AID 743343); type: functional;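 further: transfected cells were stimulated with diluted bursicon conditioned medium after compound addition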
# Interleukin-8 [18] = biological target: T4, Interleukin-8 (Homo sapiens, UniProt P10145); experiment: Dose Response confirmation of uHTS small molecule hits for cystic fibrosis induced NFkb Inhibitors in a TNFa-induced IL8 counterscreen.; type: functional; conditions: read-out: IC50_Mean
# T4 sequence (P10145 whole entry): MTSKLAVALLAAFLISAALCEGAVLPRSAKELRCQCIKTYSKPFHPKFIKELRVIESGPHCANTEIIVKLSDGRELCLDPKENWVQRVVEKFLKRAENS
# [19] = HepG2 cell cytotoxicity, dose response, cytotoxicity control, plate reader, cherry-pick, antagonist series (AID 743416); type: functional, cell-based
# Interleukin-8 [20] = biological target: T4, Interleukin-8; experiment: Dose Response confirmation of uHTS small molecule hits for cystic fibrosis induced NFkb Inhibitors in a PAF-induced IL8 counterscreen.; type: functional; conditions: read-out: IC50_Mean
# HeLa = experiment: HeLa cell cytotoxicity, dose response, cytotoxicity control for MITF activator project, CellTiter-Glo luminescence, cherry-pick samples (AID 540259); type: functional, cell-based; conditions: Homo sapiens
# Protein skinhead-1 = biological target: T5, Protein skinhead-1 (Caenorhabditis elegans, UniProt P34707); type: functional
# T5 sequence (P34707 whole entry): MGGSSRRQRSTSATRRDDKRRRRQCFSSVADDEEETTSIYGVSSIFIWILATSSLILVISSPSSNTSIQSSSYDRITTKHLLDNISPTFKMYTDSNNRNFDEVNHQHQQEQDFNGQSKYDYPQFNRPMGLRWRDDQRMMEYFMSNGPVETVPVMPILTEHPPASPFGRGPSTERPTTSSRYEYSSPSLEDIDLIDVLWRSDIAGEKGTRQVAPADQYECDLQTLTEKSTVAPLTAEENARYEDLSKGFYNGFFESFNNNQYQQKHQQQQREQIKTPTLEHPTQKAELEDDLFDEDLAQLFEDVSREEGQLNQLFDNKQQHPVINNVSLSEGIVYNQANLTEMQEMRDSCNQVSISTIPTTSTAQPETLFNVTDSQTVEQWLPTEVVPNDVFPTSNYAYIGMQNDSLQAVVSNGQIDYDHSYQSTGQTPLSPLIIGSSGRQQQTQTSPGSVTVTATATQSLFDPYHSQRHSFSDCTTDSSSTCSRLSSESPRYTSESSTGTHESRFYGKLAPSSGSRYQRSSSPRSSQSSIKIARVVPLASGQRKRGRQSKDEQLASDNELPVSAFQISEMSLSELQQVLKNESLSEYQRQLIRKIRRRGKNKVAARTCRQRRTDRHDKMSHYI
# [21] = biological target: T6, Low molecular weight phosphotyrosine protein phosphatase (Homo sapiens, UniProt P24666); type: functional; conditions: read-out: IC50_Mean;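 further: Dose-response confirmation assay measuring inhibition of LMPTP enzyme activity by fluorescence intensity read-out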
# T6 sequence (P24666 whole entry): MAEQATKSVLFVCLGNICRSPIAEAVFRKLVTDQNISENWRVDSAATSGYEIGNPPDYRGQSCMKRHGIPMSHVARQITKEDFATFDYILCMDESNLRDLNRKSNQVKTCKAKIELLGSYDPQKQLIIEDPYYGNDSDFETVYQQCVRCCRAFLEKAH
# [22] = biological target: DNA (cytosine-5)-methyltransferase 1 (Homo sapiens, UniProt P26358); experiment: DNMT1 methyltransferase inhibitors, confirmation, biochemical, fluorescent molecular beacon (AID 602386); type: functional
# Chain of DNA (cytosine-5)-methyltransferase 1 (P26358 whole entry): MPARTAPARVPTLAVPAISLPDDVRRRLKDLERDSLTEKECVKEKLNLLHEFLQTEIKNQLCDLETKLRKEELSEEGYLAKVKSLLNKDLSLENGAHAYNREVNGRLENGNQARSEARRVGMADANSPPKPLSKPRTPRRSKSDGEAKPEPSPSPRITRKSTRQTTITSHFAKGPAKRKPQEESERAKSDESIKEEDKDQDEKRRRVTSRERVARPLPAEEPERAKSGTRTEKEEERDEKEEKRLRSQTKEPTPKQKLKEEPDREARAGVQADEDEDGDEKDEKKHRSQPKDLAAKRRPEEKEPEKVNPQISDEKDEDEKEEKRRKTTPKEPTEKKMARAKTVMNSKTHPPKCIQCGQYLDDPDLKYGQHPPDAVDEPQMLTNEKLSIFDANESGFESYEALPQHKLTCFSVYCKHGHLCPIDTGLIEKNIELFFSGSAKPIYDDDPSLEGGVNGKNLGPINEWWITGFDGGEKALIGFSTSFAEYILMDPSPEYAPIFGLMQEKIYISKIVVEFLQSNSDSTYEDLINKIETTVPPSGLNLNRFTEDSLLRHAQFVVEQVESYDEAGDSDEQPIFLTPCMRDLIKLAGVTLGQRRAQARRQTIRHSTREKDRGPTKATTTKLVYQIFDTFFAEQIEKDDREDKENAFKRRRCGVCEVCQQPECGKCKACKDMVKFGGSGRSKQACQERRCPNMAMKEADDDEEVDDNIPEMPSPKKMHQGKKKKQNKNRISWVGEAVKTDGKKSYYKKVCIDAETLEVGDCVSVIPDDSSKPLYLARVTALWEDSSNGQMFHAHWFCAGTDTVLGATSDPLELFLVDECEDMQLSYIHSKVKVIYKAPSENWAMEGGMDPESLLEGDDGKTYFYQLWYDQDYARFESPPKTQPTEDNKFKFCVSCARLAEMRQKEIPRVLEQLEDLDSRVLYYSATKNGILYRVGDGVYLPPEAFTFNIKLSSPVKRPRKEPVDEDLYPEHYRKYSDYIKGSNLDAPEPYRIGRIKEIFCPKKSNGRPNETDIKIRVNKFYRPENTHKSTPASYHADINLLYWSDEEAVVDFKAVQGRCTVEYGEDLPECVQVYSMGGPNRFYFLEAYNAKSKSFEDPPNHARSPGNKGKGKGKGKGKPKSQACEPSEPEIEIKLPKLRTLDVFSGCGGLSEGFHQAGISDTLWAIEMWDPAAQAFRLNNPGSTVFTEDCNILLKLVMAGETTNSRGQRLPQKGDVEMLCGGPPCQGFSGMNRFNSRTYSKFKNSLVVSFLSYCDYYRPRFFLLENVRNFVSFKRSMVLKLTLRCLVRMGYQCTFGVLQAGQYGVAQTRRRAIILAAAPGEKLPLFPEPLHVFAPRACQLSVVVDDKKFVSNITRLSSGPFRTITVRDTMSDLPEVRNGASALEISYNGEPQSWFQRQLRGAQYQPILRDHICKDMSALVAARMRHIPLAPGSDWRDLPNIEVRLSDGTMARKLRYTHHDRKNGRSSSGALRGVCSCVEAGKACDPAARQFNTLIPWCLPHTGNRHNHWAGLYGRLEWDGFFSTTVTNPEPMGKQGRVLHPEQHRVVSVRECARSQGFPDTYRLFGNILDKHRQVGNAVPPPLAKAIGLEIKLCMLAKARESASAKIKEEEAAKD
# Chain of Adenosylmethionine-8-amino-7-oxononanoate aminotransferase (P9WQ81 whole entry): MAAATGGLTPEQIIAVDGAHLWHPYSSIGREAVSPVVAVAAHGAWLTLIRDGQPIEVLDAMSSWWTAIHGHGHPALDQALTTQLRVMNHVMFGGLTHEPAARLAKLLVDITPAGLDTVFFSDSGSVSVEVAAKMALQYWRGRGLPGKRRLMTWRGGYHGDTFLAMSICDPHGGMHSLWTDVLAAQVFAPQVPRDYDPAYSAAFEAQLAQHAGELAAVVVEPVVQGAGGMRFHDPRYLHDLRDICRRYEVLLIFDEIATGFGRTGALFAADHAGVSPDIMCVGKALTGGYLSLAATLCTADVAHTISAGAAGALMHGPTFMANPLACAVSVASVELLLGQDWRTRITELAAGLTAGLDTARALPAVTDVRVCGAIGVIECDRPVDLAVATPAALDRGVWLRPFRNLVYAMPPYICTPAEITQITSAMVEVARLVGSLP
# Chain of Peroxisome proliferator-activated receptor gamma/Nuclear receptor coactivator 1 (P37231 whole entry): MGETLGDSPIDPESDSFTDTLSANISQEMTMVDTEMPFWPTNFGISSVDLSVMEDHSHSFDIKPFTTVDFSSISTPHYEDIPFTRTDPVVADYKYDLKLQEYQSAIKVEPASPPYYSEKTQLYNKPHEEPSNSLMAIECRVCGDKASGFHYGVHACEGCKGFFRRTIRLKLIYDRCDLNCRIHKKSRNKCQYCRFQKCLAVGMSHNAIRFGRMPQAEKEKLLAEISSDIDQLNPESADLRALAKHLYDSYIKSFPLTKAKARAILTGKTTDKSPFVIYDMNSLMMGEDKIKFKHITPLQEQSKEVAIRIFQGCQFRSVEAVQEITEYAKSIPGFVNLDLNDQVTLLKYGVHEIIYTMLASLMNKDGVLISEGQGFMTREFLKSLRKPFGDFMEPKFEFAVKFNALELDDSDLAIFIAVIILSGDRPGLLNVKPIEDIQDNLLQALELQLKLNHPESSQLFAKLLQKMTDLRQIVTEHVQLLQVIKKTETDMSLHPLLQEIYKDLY
# Chain of Peroxisome proliferator-activated receptor gamma/Nuclear receptor coactivator 1 (Q15788 whole entry, further chain): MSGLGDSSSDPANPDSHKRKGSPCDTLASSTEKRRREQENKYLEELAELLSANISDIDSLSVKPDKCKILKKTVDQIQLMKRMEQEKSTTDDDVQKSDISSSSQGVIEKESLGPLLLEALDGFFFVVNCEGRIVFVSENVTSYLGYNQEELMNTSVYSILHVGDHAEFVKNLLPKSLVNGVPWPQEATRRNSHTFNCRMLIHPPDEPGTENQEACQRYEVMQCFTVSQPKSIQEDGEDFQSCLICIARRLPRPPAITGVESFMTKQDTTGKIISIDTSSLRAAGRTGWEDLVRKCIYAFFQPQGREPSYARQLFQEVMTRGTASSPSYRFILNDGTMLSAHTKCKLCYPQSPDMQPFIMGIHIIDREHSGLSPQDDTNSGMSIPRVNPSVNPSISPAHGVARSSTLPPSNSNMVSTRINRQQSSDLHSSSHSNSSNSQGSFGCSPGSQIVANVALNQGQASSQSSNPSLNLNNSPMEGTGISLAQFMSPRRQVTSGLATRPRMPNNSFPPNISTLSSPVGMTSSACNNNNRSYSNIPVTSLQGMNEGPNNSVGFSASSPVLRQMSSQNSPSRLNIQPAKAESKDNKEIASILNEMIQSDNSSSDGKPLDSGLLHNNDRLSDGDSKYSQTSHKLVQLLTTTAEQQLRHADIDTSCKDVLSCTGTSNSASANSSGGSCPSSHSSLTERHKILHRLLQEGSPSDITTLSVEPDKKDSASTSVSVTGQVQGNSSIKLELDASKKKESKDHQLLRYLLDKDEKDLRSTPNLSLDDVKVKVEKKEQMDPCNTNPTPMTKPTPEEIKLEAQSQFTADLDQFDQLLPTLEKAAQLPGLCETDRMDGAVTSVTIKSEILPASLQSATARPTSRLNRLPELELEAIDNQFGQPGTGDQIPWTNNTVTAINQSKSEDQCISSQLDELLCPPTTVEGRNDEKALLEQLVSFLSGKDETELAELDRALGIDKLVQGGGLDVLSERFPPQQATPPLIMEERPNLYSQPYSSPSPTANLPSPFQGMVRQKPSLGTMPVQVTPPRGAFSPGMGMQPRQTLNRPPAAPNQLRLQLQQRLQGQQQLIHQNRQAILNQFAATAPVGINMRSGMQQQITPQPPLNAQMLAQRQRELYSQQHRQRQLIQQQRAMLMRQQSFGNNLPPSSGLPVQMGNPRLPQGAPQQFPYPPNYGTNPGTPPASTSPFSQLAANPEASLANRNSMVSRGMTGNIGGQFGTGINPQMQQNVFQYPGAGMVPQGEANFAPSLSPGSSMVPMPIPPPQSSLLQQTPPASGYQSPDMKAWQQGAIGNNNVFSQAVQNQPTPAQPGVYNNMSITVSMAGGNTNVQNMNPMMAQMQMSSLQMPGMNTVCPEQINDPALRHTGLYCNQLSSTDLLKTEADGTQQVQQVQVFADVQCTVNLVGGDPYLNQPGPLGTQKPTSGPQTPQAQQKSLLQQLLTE
compound,measurement,setting,value
Cc1cc2c(c(=O)n1Cc1cccnc1)C(c1cccs1)C(C#N)=C(N)O2 (stereo unspecified),AC50,[1],2.08 µM (active)
COc1ccc2c(-c3ccccc3)cc(SCC(=O)NC(N)=O)nc2c1,EC50,[2],> 79.4 µM (not active)
same,IC50,HEK293 [3],22.3 µM (inactive)
same,EC50,Insulin-degrading enzyme [4],> 54.7 µM (inactive)
same,EC50,Insulin-degrading enzyme [5],> 54.7 µM (inactive)
same,EC50,[6],> 79.4 µM (not active)
same,EC50,[7],> 79.4 µM (not active)
same,EC50,HEK293 [8],> 55.9 µM (inactive)
CC(=O)OCCn1c2nc(=O)[nH]c(=O)c-2nc2cc(C)c(C)cc21,IC50,HEK293 [3],> 89.2 µM (inactive)
same,EC50,Insulin-degrading enzyme [4],> 54.7 µM (inactive)
same,EC50,Insulin-degrading enzyme [5],> 54.7 µM (inactive)
same,AC50,ORF 73,246 nM (active)
same,EC50,HEK293 [8],> 54.7 µM (inactive)
same,EC50,[9],54.4 µM (inactive)
O=C(NC1CCCC1)c1cnn2c(C(F)(F)F)cc(-c3ccc4c(c3)OCO4)nc12,IC50,HEK293 [3],> 89.2 µM (inactive)
same,EC50,Insulin-degrading enzyme [4],> 54.7 µM (inactive)
same,EC50,Insulin-degrading enzyme [5],> 54.7 µM (inactive)
same,EC50,HEK293 [8],> 55.9 µM (inactive)
COc1ccc(CNC(=O)c2ccc(=O)oc2)cc1OC,IC50,[10],151 µM (inactive)
COc1ccc(N/C=C/C(=O)c2cc(OC)c(OC)c(OC)c2)cc1,EC50,BJ [11],0.441 µM (inconclusive)
same,EC50,BJ [12],133 nM (active)
same,EC50,BJ [13],20.5 µM (inconclusive)
same,EC50,BJ [14],666 nM (active)
same,EC50,[15],603 nM (active)
Cc1ccc(-c2cc(C(=O)N(C)Cc3cnn(C)c3C)c3cc(Br)ccc3n2)cc1,AC50,[16],26.6 µM (active)
same,AC50,[17],29.1 µM (active)
same,IC50,Interleukin-8 [18],> 79 µM (inactive)
same,AC50,[19],43.1 µM (active)
same,IC50,Interleukin-8 [20],1.11 µM (active)
Clc1ccccc1/C=C/c1nc(-c2cccnc2)no1,AC50,HeLa,54.3 µM (active)
same,IC50,Protein skinhead-1,> 100 µM (inactive)
COc1cc2c(cc1NC(=O)c1cccnc1)CCCC2,AC50,[1],9.76 µM (active)
same,IC50,Protein skinhead-1,> 100 µM (inactive)
C=CCc1cccc2cc(C(=O)NCc3cccnc3)c(=O)oc12,IC50,[21],21.2 µM (inactive)
Cn1c2ccccc2c2c(=O)oc3ccccc3c21,IC50,[22],> 99 µM (inactive)
COc1ccccc1N1CCN(/N=C/c2ccc(Cl)c([N+](=O)[O-])c2)CC1,IC50,[22],> 99 µM (inactive)
Cc1ccc(/C=N/NC(=O)c2cc(-c3ccncc3)nc3ccccc23)o1,EC50,BJ [11],25.4 µM (active)
same,EC50,BJ [12],1410 nM (active)
same,EC50,BJ [13],37.5 µM (inconclusive)
same,EC50,BJ [14],2770 nM (active)
same,EC50,[15],2270 nM (active)
